# Measured values: PubChem BioAssay (NCI)
#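 Cells were grown in 96-well plates and exposed to each compound for 48 hours at five concentrations; endpoints were interpolated linearly between bracketing concentrations, or set to the highest concentration if not reached. The concentration for full growth arrest is given as TGI.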
# Assays:
# Assay in all cases: DTP human tumour cell line panel, 48 h
# [1] = tested on: HS 578T breast
# [2] = tested on: SK-MEL-2 melanoma
# [3] = tested on: MCF7 breast
# [4] = tested on: M14 melanoma
# [5] = tested on: CAKI-1 renal
# [6] = tested on: HCC-2998 colon
# [7] = tested on: K-562 leukemia
# [8] = tested on: SF-295 CNS
# [9] = tested on: 786-0 renal
# [10] = tested on: SK-MEL-28 melanoma
# [11] = tested on: KM12 colon
# [12] = tested on: OVCAR-5 ovarian
# [13] = tested on: RPMI-8226 leukemia
# [14] = tested on: HOP-92 NSCLC
# [15] = tested on: MDA-MB-435
# [16] = tested on: U251 CNS
# [17] = tested on: SK-MEL-5 melanoma
# [18] = tested on: LOX IMVI melanoma
# [19] = tested on: HT29 colon
# [20] = tested on: MDA-MB-231 breast
# [21] = tested on: EKVX NSCLC
# [22] = tested on: UACC-257 melanoma
# [23] = tested on: IGROV1 ovarian
# [24] = tested on: MOLT-4 leukemia
# [25] = tested on: SNB-19 CNS
# [26] = tested on: A549 NSCLC
# [27] = tested on: A498 renal
# [28] = tested on: CCRF-CEM leukemia
# [29] = tested on: DU-145 prostate
# [30] = tested on: HOP-62 NSCLC
# [31] = tested on: ACHN renal
# [32] = tested on: COLO 205 colon
# [33] = tested on: OVCAR-3 ovarian
# [34] = tested on: T-47D breast
# [35] = tested on: HCT-15 colon
# [36] = tested on: SK-OV-3 ovarian
# [37] = tested on: UACC-62 melanoma
# [38] = tested on: OVCAR-4 ovarian
# [39] = tested on: MDA-N
# [40] = tested on: TK-10 renal
# [41] = tested on: BT-549 breast
# [42] = tested on: NCI-H226 lung
# [43] = tested on: NCI-H522 lung
# [44] = tested on: OVCAR-8 ovarian
# [45] = tested on: PC-3 prostate
# [46] = tested on: UO-31 renal
# [47] = tested on: NCI/ADR-RES ovarian
# [48] = tested on: SN12C renal
# [49] = tested on: HCT-116 colon
# [50] = tested on: NCI-H23 lung
# [51] = tested on: MALME-3M melanoma
# [52] = tested on: NCI-H460 lung
# [53] = tested on: SW-620 colon
# [54] = tested on: SR leukemia
# [55] = tested on: SF-268 CNS
# [56] = tested on: SF-539 CNS
# [57] = tested on: HL-60(TB) leukemia
# [58] = tested on: SNB-75 CNS
# [59] = tested on: RXF 393 renal
smiles,measurement,setting,value
O=C(O)CN(CC(=O)O)C1CCCCC1N1CC(=O)OC(=O)C1 (stereo not given),TGI,[1],> 100 µM
same,TGI,[2],> 100 µM
same,TGI,[3],> 100 µM
same,TGI,[4],> 100 µM
same,TGI,[5],> 100 µM
same,TGI,[6],> 100 µM
same,TGI,[7],> 100 µM
same,TGI,[8],> 100 µM
same,TGI,[9],> 100 µM
same,TGI,[10],> 100 µM
same,TGI,[11],> 100 µM
same,TGI,[12],> 100 µM
same,TGI,[13],> 100 µM
same,TGI,[14],> 100 µM
same,TGI,[15],> 100 µM
same,TGI,[16],> 100 µM
same,TGI,[17],> 100 µM
same,TGI,[18],> 100 µM
same,TGI,[19],> 100 µM
same,TGI,[20],> 100 µM
same,TGI,[21],> 100 µM
same,TGI,[22],> 100 µM
same,TGI,[23],> 100 µM
same,TGI,[24],> 100 µM
same,TGI,[25],> 100 µM
same,TGI,[26],> 100 µM
same,TGI,[27],> 100 µM
same,TGI,[28],> 100 µM
same,TGI,[29],> 100 µM
same,TGI,[30],> 100 µM
same,TGI,[31],> 100 µM
same,TGI,[32],> 100 µM
same,TGI,[33],> 100 µM
same,TGI,[34],> 100 µM
same,TGI,[35],> 100 µM
same,TGI,[36],> 100 µM
same,TGI,[37],> 100 µM
same,TGI,[38],> 100 µM
same,TGI,[39],> 100 µM
same,TGI,[40],> 100 µM
same,TGI,[41],> 100 µM
same,TGI,[42],> 100 µM
same,TGI,[43],> 100 µM
same,TGI,[44],> 100 µM
same,TGI,[45],> 100 µM
same,TGI,[46],> 100 µM
same,TGI,[47],> 100 µM
same,TGI,[48],> 100 µM
same,TGI,[49],> 100 µM
same,TGI,[50],> 100 µM
same,TGI,[51],> 100 µM
same,TGI,[52],> 100 µM
same,TGI,[53],> 100 µM
same,TGI,[54],> 100 µM
same,TGI,[55],> 100 µM
same,TGI,[56],> 100 µM
same,TGI,[57],> 100 µM
same,TGI,[58],95.5 µM
CC1CC[C@@]2(OC1)OC1C[C@H]3[C@@H]4CC=C5CC(OC6OC(CO)C(OC7OC(CO)C(O)C(OC8OCC(O)C(O)C8O)C7OC7OC(CO)C(OC8OC(C)C(OC9OC(C)C(O)C(O)C9O)C(O)C8O)C(O)C7O)C(O)C6O)CCC5(C)[C@H]4CCC3(C)C1[C@@H]2C (stereo not given in full),TGI,[1],17.8 µM
same,TGI,[2],13.5 µM
same,TGI,[3],26.8 µM
same,TGI,[4],10.1 µM
same,TGI,[5],15.3 µM
same,TGI,[6],14.1 µM
same,TGI,[7],19.6 µM
same,TGI,[8],13.8 µM
same,TGI,[9],10.3 µM
same,TGI,[59],14.2 µM
same,TGI,[10],20.1 µM
same,TGI,[11],17.7 µM
same,TGI,[12],14.3 µM
same,TGI,[13],25 µM
same,TGI,[14],14.8 µM
same,TGI,[15],18.4 µM
same,TGI,[16],16.3 µM
same,TGI,[17],15.8 µM
same,TGI,[18],17.3 µM
same,TGI,[19],15.4 µM
same,TGI,[20],11.9 µM
same,TGI,[21],15.3 µM
same,TGI,[22],18.1 µM
same,TGI,[23],16.6 µM
same,TGI,[24],24.7 µM
same,TGI,[25],11.6 µM
same,TGI,[26],14.5 µM
same,TGI,[27],8.7 µM
same,TGI,[28],21.9 µM
same,TGI,[29],15.9 µM
same,TGI,[30],19 µM
same,TGI,[31],9.92 µM
same,TGI,[32],15.6 µM
same,TGI,[33],20.7 µM
same,TGI,[34],20.2 µM
same,TGI,[35],18.9 µM
same,TGI,[36],17.3 µM
same,TGI,[37],17.7 µM
same,TGI,[38],12.8 µM
same,TGI,[39],16.2 µM
same,TGI,[40],15.8 µM
same,TGI,[41],16.4 µM
same,TGI,[42],18.1 µM
same,TGI,[43],16.8 µM
same,TGI,[44],19.4 µM
same,TGI,[45],11.7 µM
same,TGI,[47],17.8 µM
same,TGI,[48],17 µM
same,TGI,[49],15.3 µM
same,TGI,[50],16.7 µM
same,TGI,[51],20.1 µM
same,TGI,[52],20.2 µM
same,TGI,[53],22.9 µM
same,TGI,[54],50 µM
same,TGI,[55],18 µM
same,TGI,[56],12.7 µM
same,TGI,[57],17.2 µM
